# Experimental data taken from paper PMC12751012, “Nanoscale Direct-to-Biology Optimization and Structural Insights into Selective S. aureus TrmD Inhibitors” (Journal of Medicinal Chemistry, 2025).
# Target: T1, S. aureus TrmD (Staphylococcus aureus, UniProt Q2FZ43)
# T1 construct: made in house; host or cells: E. coli BL21
# T1 sequence (Q2FZ43 1-245): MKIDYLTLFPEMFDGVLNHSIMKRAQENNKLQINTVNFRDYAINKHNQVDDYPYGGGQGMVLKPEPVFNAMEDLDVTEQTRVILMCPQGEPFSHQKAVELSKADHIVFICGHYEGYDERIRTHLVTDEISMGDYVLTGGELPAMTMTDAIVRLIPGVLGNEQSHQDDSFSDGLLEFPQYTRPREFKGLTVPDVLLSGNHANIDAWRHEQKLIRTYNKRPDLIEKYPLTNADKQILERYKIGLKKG
# Experiment: nanoSAR direct-to-biology FP displacement screening of crude triazoles
# Type: binding
# Details: crude triazole at 1 μM, assuming full conversion; 500 nM TrmD, 10 nM tracer 4; read-out: % displaced tracer
# How it was run: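 S. aureus TrmD (500 nM) with tracer 4 (10 nM) in Tris/NaCl/MgCl2/glycerol buffer, pH 7.5, was challenged with unpurified triazoles from in situ CuAAC of alkyne 7 with a 320-member azide library.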
row,Compound,inhibition at 1 µM [%]
1,"O=c1[nH]cnc2[nH]cc(-c3cn([C@H]4CC5(CCC5)Oc5ccc(F)cc54)nn3)c12 [Compound 03B06, Fc1cc2c(OC3(C[C@@H]2N4N=NC(C=5C=6C(=O)NC=NC6NC5)=C4)CCC3)cc1]",70
2,"Cc1ccc(O)c(Cn2cc(-c3c[nH]c4nc[nH]c(=O)c34)nn2)n1 [Compound 02C01, O=C1NC=NC=2NC=C(C=3N=NN(C3)Cc4nc(ccc4O)C)C12]",32
3,"CN(C)[C@@H]1CCN(CCn2cc(-c3c[nH]c4nc[nH]c(=O)c34)nn2)C1 [Compound 03E03, O=C1NC=NC=2NC=C(C=3N=NN(C3)CC[N@@H+]4C[C@H]([NH+](C)C)CC4)C12]",40
4,"CC(C)(C)Cn1cc(-c2c[nH]c3nc[nH]c(=O)c23)nn1 [Compound 04A03, O=C1NC=NC=2NC=C(C=3N=NN(C3)CC(C)(C)C)C12]",19
5,"O=c1[nH]cnc2[nH]cc(-c3cn(C4COC4)nn3)c12 [Compound 03G09, O=C1NC=NC=2NC=C(C=3N=NN(C3)C4COC4)C12]",19
6,"O=c1[nH]cnc2[nH]cc(-c3cn([C@@H]4CC[C@H]4F)nn3)c12 [Compound 04C04, F[C@H]1[C@H](N2N=NC(C=3C=4C(=O)NC=NC4NC3)=C2)CC1]",21
7,"COC[C@H](O)Cn1cc(-c2c[nH]c3nc[nH]c(=O)c23)nn1 [Compound 02G06, O=C1NC=NC=2NC=C(C=3N=NN(C3)C[C@@H](O)COC)C12]",13
8,"O=c1[nH]cnc2[nH]cc(-c3cn(-c4ccc5c(c4)CCC5)nn3)c12 [Compound 01F08, O=C1NC=NC=2NC=C(C=3N=NN(c4cc5c(cc4)CCC5)C3)C12]",5
9,"CC1(Cn2cc(-c3c[nH]c4nc[nH]c(=O)c34)nn2)COC1 [Compound 01H02, O=C1NC=NC=2NC=C(C=3N=NN(C3)CC4(COC4)C)C12]",58
10,"O=c1[nH]cnc2[nH]cc(-c3cn(CCN4CCCC4)nn3)c12 [Compound 01A04, O=C1NC=NC=2NC=C(C=3N=NN(C3)CC[NH+]4CCCC4)C12]",22
11,"O=C(Cn1cc(-c2c[nH]c3nc[nH]c(=O)c23)nn1)N1CCCCC1 [Compound 02F02, O=C1NC=NC=2NC=C(C=3N=NN(C3)CC(=O)N4CCCCC4)C12]",32
12,"O=c1[nH]cnc2[nH]cc(-c3cn(C[C@H](O)C(F)(F)F)nn3)c12 [Compound 03D12, FC(F)(F)[C@@H](O)CN1N=NC(C=2C=3C(=O)NC=NC3NC2)=C1]",71
13,"O=c1[nH]cnc2[nH]cc(-c3cn(Cc4ncoc4C4CCC4)nn3)c12 [Compound 02F08, O=C1NC=NC=2NC=C(C=3N=NN(C3)CC=4N=COC4C5CCC5)C12]",61
14,"O=c1[nH]cnc2[nH]cc(-c3cn(-c4cccc5ccncc45)nn3)c12 [Compound 03F04, O=C1NC=NC=2NC=C(C=3N=NN(c4c5c(ccnc5)ccc4)C3)C12]",22
15,"CC(C)(CN)Cn1cc(-c2c[nH]c3nc[nH]c(=O)c23)nn1 [Compound 02E01, O=C1NC=NC=2NC=C(C=3N=NN(C3)CC(C[NH3+])(C)C)C12]",54
16,"N#Cc1cnn(CCn2cc(-c3c[nH]c4nc[nH]c(=O)c34)nn2)c1 [Compound 02G10, O=C1NC=NC=2NC=C(C=3N=NN(C3)CCN4N=CC(C#N)=C4)C12]",38
17,"O=c1[nH]cnc2[nH]cc(-c3cn([C@H]4C=CCCCC4)nn3)c12 [Compound 04B01, O=C1NC=NC=2NC=C(C=3N=NN(C3)[C@H]4C=CCCCC4)C12]",32
18,"O=C1c2ccccc2C(=O)N1CCn1cc(-c2c[nH]c3nc[nH]c(=O)c23)nn1 [Compound 01H05, O=C1N(C(=O)c2c1cccc2)CCN3N=NC(C=4C=5C(=O)NC=NC5NC4)=C3]",13
19,"O=c1[nH]cnc2[nH]cc(-c3cn(-c4cccc5cnccc45)nn3)c12 [Compound 01D05, O=C1NC=NC=2NC=C(C=3N=NN(c4c5c(cncc5)ccc4)C3)C12]",16
20,"O=c1[nH]cnc2[nH]cc(-c3cn(-c4ccc(O)cc4)nn3)c12 [Compound 01G09, O=C1NC=NC=2NC=C(C=3N=NN(c4ccc(O)cc4)C3)C12]",23
21,"COC(=O)c1cccc2nc(Cn3cc(-c4c[nH]c5nc[nH]c(=O)c45)nn3)cn12 [Compound 03F06, O=C(OC)C=1N2C(=NC(=C2)CN3N=NC(C=4C=5C(=O)NC=NC5NC4)=C3)C=CC1]",26
22,"O=c1[nH]cnc2[nH]cc(-c3cn(-c4ccc(-c5ccccc5)cc4)nn3)c12 [Compound 02B05, O=C1NC=NC=2NC=C(C=3N=NN(c4ccc(c5ccccc5)cc4)C3)C12]",3
23,"O=c1[nH]cnc2[nH]cc(-c3cn(CCCOC4CCC4)nn3)c12 [Compound 01C08, O=C1NC=NC=2NC=C(C=3N=NN(C3)CCCOC4CCC4)C12]",27
24,"O=c1[nH]cnc2[nH]cc(-c3cn(C[C@H]4CCC[C@@]5(CCOC5)O4)nn3)c12 [Compound 01A06, O=C1NC=NC=2NC=C(C=3N=NN(C3)C[C@@H]4O[C@@]5(COCC5)CCC4)C12]",52

row,Compound,inhibition at 1 µM [%]
1,"O=c1[nH]cnc2[nH]cc(-c3cn(CCF)nn3)c12 [Compound 01C05, FCCN1N=NC(C=2C=3C(=O)NC=NC3NC2)=C1]",22
2,"N#CCC1(Cn2cc(-c3c[nH]c4nc[nH]c(=O)c34)nn2)CC1 [Compound 03A06, O=C1NC=NC=2NC=C(C=3N=NN(C3)CC4(CC#N)CC4)C12]",65
3,"O=c1[nH]cnc2[nH]cc(-c3cn(CCc4ccccn4)nn3)c12 [Compound 04G02, O=C1NC=NC=2NC=C(C=3N=NN(C3)CCc4ncccc4)C12]",89
4,"Cc1cc(C)cc(-n2cc(-c3c[nH]c4nc[nH]c(=O)c34)nn2)c1 [Compound 03B05, O=C1NC=NC=2NC=C(C=3N=NN(c4cc(cc(c4)C)C)C3)C12]",24
5,"O=c1[nH]cnc2[nH]cc(-c3cn(C[C@H](O)Cc4cccc(F)c4)nn3)c12 [Compound 02H06, Fc1cc(ccc1)C[C@@H](O)CN2N=NC(C=3C=4C(=O)NC=NC4NC3)=C2]",27
6,"O=c1[nH]cnc2[nH]cc(-c3cn(-c4cccc5ncccc45)nn3)c12 [Compound 03B01, O=C1NC=NC=2NC=C(C=3N=NN(c4c5c(nccc5)ccc4)C3)C12]",20
7,"O=c1[nH]cnc2[nH]cc(-c3cn(CCc4c[nH]c5ccccc45)nn3)c12 [Compound 02C02, O=C1NC=NC=2NC=C(C=3N=NN(C3)CCC=4c5c(NC4)cccc5)C12]",56
8,"O=c1[nH]cnc2[nH]cc(-c3cn(Cc4ccc(Cl)s4)nn3)c12 [Compound 04C02, ClC=1SC(=CC1)CN2N=NC(C=3C=4C(=O)NC=NC4NC3)=C2]",92
9,"NCCCCn1cc(-c2c[nH]c3nc[nH]c(=O)c23)nn1 [Compound 02E04, O=C1NC=NC=2NC=C(C=3N=NN(C3)CCCC[NH3+])C12]",16
10,"COCCn1cc(-c2c[nH]c3nc[nH]c(=O)c23)nn1 [Compound 03C11, O=C1NC=NC=2NC=C(C=3N=NN(C3)CCOC)C12]",29
11,"Cn1cc(Cn2cc(-c3c[nH]c4nc[nH]c(=O)c34)nn2)cn1 [Compound 01F04, O=C1NC=NC=2NC=C(C=3N=NN(C3)CC=4C=NN(C4)C)C12]",57
12,"O=c1[nH]cnc2[nH]cc(-c3cn(CC4CCNCC4)nn3)c12 [Compound 02C09, O=C1NC=NC=2NC=C(C=3N=NN(C3)CC4CC[NH2+]CC4)C12]",79
13,"COc1ccc(Cl)c(-n2cc(-c3c[nH]c4nc[nH]c(=O)c34)nn2)c1 [Compound 02D02, Clc1c(N2N=NC(C=3C=4C(=O)NC=NC4NC3)=C2)cc(OC)cc1]",3
14,"Cc1cncc(CCn2cc(-c3c[nH]c4nc[nH]c(=O)c34)nn2)n1 [Compound 04C01, O=C1NC=NC=2NC=C(C=3N=NN(C3)CCc4nc(cnc4)C)C12]",69
15,"CCO[C@@H]1CCCC[C@H]1n1cc(-c2c[nH]c3nc[nH]c(=O)c23)nn1 [Compound 03D09, O=C1NC=NC=2NC=C(C=3N=NN(C3)[C@H]4[C@H](OCC)CCCC4)C12]",25
16,"COC(=O)c1sccc1-n1cc(-c2c[nH]c3nc[nH]c(=O)c23)nn1 [Compound 01D11, S1C(C(=O)OC)=C(N2N=NC(C=3C=4C(=O)NC=NC4NC3)=C2)C=C1]",21
17,"O=c1[nH]cnc2[nH]cc(-c3cn([C@@H]4CCCc5cccnc54)nn3)c12 [Compound 02G11, O=C1NC=NC=2NC=C(C=3N=NN(C3)[C@H]4c5ncccc5CCC4)C12]",18
18,"O=c1[nH]cnc2[nH]cc(-c3cn(CCOc4ccc(Cl)cc4)nn3)c12 [Compound 03H10, Clc1ccc(OCCN2N=NC(C=3C=4C(=O)NC=NC4NC3)=C2)cc1]",85
19,"NCc1cccc(-n2cc(-c3c[nH]c4nc[nH]c(=O)c34)nn2)c1 [Compound 03G11, O=C1NC=NC=2NC=C(C=3N=NN(c4cc(ccc4)C[NH3+])C3)C12]",32
20,"O=c1[nH]cnc2[nH]cc(-c3cn(C[C@@H]4CCCN4)nn3)c12 [Compound 03C09, O=C1NC=NC=2NC=C(C=3N=NN(C3)C[C@H]4[NH2+]CCC4)C12]",58
21,"Cc1cc(F)ccc1[C@H](C)n1cc(-c2c[nH]c3nc[nH]c(=O)c23)nn1 [Compound 03F07, Fc1cc(c(cc1)[C@@H](N2N=NC(C=3C=4C(=O)NC=NC4NC3)=C2)C)C]",51
22,"Cc1ccc(Cn2cc(-c3c[nH]c4nc[nH]c(=O)c34)nn2)o1 [Compound 01H03, O=C1NC=NC=2NC=C(C=3N=NN(C3)CC=4OC(=CC4)C)C12]",33
23,"NCCCCCCn1cc(-c2c[nH]c3nc[nH]c(=O)c23)nn1 [Compound 03H09, O=C1NC=NC=2NC=C(C=3N=NN(C3)CCCCCC[NH3+])C12]",50
24,"O=c1[nH]cnc2[nH]cc(-c3cn(-c4ccncc4)nn3)c12 [Compound 02C12, O=C1NC=NC=2NC=C(C=3N=NN(c4ccncc4)C3)C12]",18
